Test results: US12077503B2, “Substituted cyclic amides and their use as herbicides” (FMC CORPORATION, priority 2015, dated 2024)

What was measured:
Type in all cases: in vivo
Kochia (Kochia scoparia) [1] = assay: Test A preemergence
Procedure, shortened: (§1)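 Each rating is a visual injury score from 0 to 100 given about 10 d after treatment, judged against untreated controls kept alongside in the greenhouse. In loam soil–sand blend, seeds got a preemergence directed soil spray, while postemergence plants were 2 to 10 cm tall at spraying.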

[2] = system: barnyardgrass (Echinochloa crus-galli); assay: Test A preemergence
Procedure, shortened: as §1

[3] = system: giant foxtail (Setaria faberii); assay: Test A preemergence
Procedure, shortened: as §1

[4] = system: pigweed (Amaranthus retroflexus); assay: Test A preemergence
[5] = system: ragweed (common ragweed, Ambrosia elatior); assay: Test A preemergence
Procedure, shortened: as §1

[6] = system: ryegrass, Italian (Italian ryegrass, Lolium multiflorum); assay: Test A preemergence
Procedure, shortened: as §1

[7] = system: Galium (catchweed bedstraw, Galium aparine); assay: Test A postemergence; details: postemergence, 0 to 100 scale (0 no effect, 100 complete control)
Procedure, shortened: as §1

Kochia (Kochia scoparia) [8] = assay: Test A postemergence; details: postemergence, 0 to 100 scale (0 no effect, 100 complete control)
Procedure, shortened: as §1

[9] = system: barnyardgrass (Echinochloa crus-galli); assay: Test A postemergence; details: postemergence, 0 to 100 scale (0 no effect, 100 complete control)
Procedure, shortened: as §1

[10] = system: blackgrass (Alopecurus myosuroides); assay: Test A postemergence; details: postemergence, 0 to 100 scale (0 no effect, 100 complete control)
Procedure, shortened: as §1

corn (Zea mays) = assay: Test A postemergence; details: postemergence, 0 to 100 scale (0 no effect, 100 complete control)
Procedure, shortened: as §1

[11] = system: giant foxtail (Setaria faberii); assay: Test A postemergence; details: postemergence, 0 to 100 scale (0 no effect, 100 complete control)
Procedure, shortened: as §1

[12] = system: pigweed (Amaranthus retroflexus); assay: Test A postemergence; details: postemergence, 0 to 100 scale (0 no effect, 100 complete control)
Procedure, shortened: as §1

[13] = system: ragweed (common ragweed, Ambrosia elatior); assay: Test A postemergence; details: postemergence, 0 to 100 scale (0 no effect, 100 complete control)
Procedure, shortened: as §1

[14] = system: ryegrass, Italian (Italian ryegrass, Lolium multiflorum); assay: Test A postemergence; details: postemergence, 0 to 100 scale (0 no effect, 100 complete control)
Procedure, shortened: as §1

[15] = system: wheat (Triticum aestivum); assay: Test A postemergence; details: postemergence, 0 to 100 scale (0 no effect, 100 complete control)
Procedure, shortened: as §1

[16] = system: barnyardgrass (Echinochloa crus-galli); assay: Test B flooded paddy test; details: Flood, 250 g ai/ha; 0 to 100 scale where 0 is no effect and 100 is complete control; 13 to 15 d
Procedure, shortened: (§2)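 Response scored visually against untreated controls, 0 = no effect and 100 = complete control, 13–15 d after treatment in the greenhouse. Compounds added to paddy water held 3 cm above soil surface. Treatment given at 2-leaf stage.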

[17] = system: ducksalad (Heteranthera limosa); assay: Test B flooded paddy test; details: Flood, 250 g ai/ha; 0 to 100 scale where 0 is no effect and 100 is complete control; 13 to 15 d
Procedure, shortened: as §2

rice (Oryra sativa) = assay: Test B flooded paddy test; details: Flood, 250 g ai/ha; 0 to 100 scale where 0 is no effect and 100 is complete control; 13 to 15 d
Procedure, shortened: as §2

[18] = system: sedge, umbrella (small-flower umbrella sedge, Cyperus difformis); assay: Test B flooded paddy test; details: Flood, 250 g ai/ha; 0 to 100 scale where 0 is no effect and 100 is complete control; 13 to 15 d
Procedure, shortened: as §2

[19] = 125 g ai/ha, Preemergence, visual injury after approximately 10 d, 0 to 100 scale where 0 is no effect and 100 is complete control
[20] = 500 g ai/ha, preemergence, 0 to 100 scale, 0 = no effect, 100 = complete control
[21] = 125 g ai/ha, visual rating after approx. 10 d
[22] = 500 g ai/ha, visual injury, approx. 10 d

Structure (SMILES): Cc1ccc(C2CN(C)C(=O)C2C(=O)Nc2ccccc2C(F)(F)F)cc1 (stereo not drawn) [Compound 665]
- Plant response rating, Kochia (Kochia (Kochia scoparia) [1]; [19]): 60
- Plant response rating, Kochia (Kochia (Kochia scoparia) [1]; [20]): 70
- Plant response rating, Barnyardgrass [2, 19]: 90
- Plant response rating, Barnyardgrass [2, 20]: 90
- Plant response rating, Foxtail, Giant [3, 19]: 100
- Plant response rating, Foxtail, Giant [3, 20]: 100
- Plant response rating, Pigweed [4, 19]: 30
- Plant response rating, Pigweed [4, 20]: 30
- Plant response rating, Ragweed [5, 19]: 20
- Plant response rating, Ragweed [5, 20]: 90
- Plant response rating, Ryegrass, Italian [6, 19]: 20
- Plant response rating, Ryegrass, Italian [6, 20]: 50
- Plant response rating, Galium [7, 21]: 50
- Plant response rating, Galium [7, 22]: 50
- Plant response rating, Kochia (Kochia (Kochia scoparia) [8]; [21]): 0
- Plant response rating, Kochia (Kochia (Kochia scoparia) [8]; [22]): 50
- Plant response rating, Barnyardgrass [9, 21]: 90
- Plant response rating, Barnyardgrass [9, 22]: 90
- Plant response rating, Blackgrass [10, 21]: 40
- Plant response rating, Blackgrass [10, 22]: 70
- Plant response rating, Corn (corn (Zea mays); [21]): 40
- Plant response rating, Corn (corn (Zea mays); [22]): 70
- Plant response rating, Foxtail, Giant [11, 21]: 90
- Plant response rating, Foxtail, Giant [11, 22]: 90
- Plant response rating, Pigweed [12, 21]: 0
- Plant response rating, Pigweed [12, 22]: 20
- Plant response rating, Ragweed [13, 21]: 0
- Plant response rating, Ragweed [13, 22]: 30
- Plant response rating, Ryegrass, Italian [14, 21]: 30
- Plant response rating, Ryegrass, Italian [14, 22]: 80
- Plant response rating, Wheat [15, 21]: 30
- Plant response rating, Wheat [15, 22]: 70
- Plant response rating, Barnyardgrass [16]: 70
- Plant response rating, Ducksalad [17]: 90
- Plant response rating, Rice (rice (Oryra sativa)): 25
- Plant response rating, Sedge, Umbrella [18]: 0
